Here are results for 28 compounds from US20230416225A1, “DIAMINOPYRIMIDINE CARBOXAMIDE INHIBITORS OF HPK1” (MERCK SHARP & DOHME LLC, priority 2020, published 2023).

This assay has as its target T1, Human HPK1, catalytic domain (Homo sapiens, UniProt Q92918).
T1 construct: purchased Carna
T1 sequence (Q92918 1-346): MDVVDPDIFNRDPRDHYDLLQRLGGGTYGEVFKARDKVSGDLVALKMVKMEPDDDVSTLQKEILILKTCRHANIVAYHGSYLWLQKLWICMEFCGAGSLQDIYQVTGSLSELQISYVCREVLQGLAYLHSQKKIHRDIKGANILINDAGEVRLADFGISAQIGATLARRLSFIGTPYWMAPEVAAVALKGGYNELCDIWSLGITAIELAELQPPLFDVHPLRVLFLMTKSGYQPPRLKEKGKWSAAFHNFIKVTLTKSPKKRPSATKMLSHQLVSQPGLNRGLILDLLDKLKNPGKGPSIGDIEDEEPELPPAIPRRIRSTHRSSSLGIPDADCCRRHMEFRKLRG
Nature of the assay: HPK1-SLP76 TR-FRET assay. The format is biochemical. The settings on record: 75 pM HPK1, 10 uM ATP, 10 nM SLP76, 30 min compound pre-incubation. In general terms: Time-resolved FRET reads energy transfer from a long-lived donor to a nearby acceptor.
For `COc1cc2c(cc1Nc1ncc(C(N)=O)c(Nc3cccc4c3OCC4)n1)CN(C)CC2` [Example 7-7, 4-[(2,3-dihydro-1-benzofuran-7-yl)amino]-2-[(6-methoxy-2-methyl-1,2,3,4-tetrahydroisoquinolin-7-yl)amino]pyrimidine-5-carboxamide], the IC50 – broadly, the concentration that gives 50% inhibition – was determined as 30 pM.

The compound `NC(=O)c1cnc(Nc2cnn(CC3CC3)c2)nc1Nc1cccc2c1CCNC2` [Example 7-8, 2-{[1-(cyclopropylmethyl)-1H-pyrazol-4-yl]amino}-4-[(1,2,3,4-tetrahydroisoquinolin-5-yl)amino]pyrimidine-5-carboxamide] showed an IC50 of 1480 pM. This IC50 lies about 49-fold higher than the previous one.

With `COc1nn(C)cc1Nc1ncc(C(N)=O)c(Nc2cccc3c2CCNC3)n1` [Example 7-9, 2-[(3-methoxy-1-methyl-1H-pyrazol-4-yl)amino]-4-[(1,2,3,4-tetrahydroisoquinolin-5-yl)amino]pyrimidine-5-carboxamide], the half-maximal inhibitory concentration (IC50) came out at 1170 pM.

Compound `COc1cc(N2CCNCC2)ccc1Nc1ncc(C(N)=O)c(Nc2ccccc2Br)n1` [Example 7-10, 4-[(2-bromophenyl)amino]-2-{[2-methoxy-4-(piperazin-1-yl)phenyl]amino}pyrimidine-5-carboxamide] registered a concentration for half-maximal inhibition (IC50) of 34200 pM.

Turning to `Cn1cc(Nc2ncc(C(N)=O)c(Nc3cccc4c3CCNC4)n2)c(=O)[nH]1` [Example 7-11, 2-[(1-methyl-3-oxo-2,3-dihydro-1H-pyrazol-4-yl)amino]-4-[(1,2,3,4-tetrahydroisoquinolin-5-yl)amino]pyrimidine-5-carboxamide], inhibition was half-maximal at 111000 pM (IC50).

On to `Cn1cc(Nc2ncc(C(N)=O)c(Nc3cccc4c3CCNC4)n2)cn1` [Example 7-12, 2-[(1-methyl-1H-pyrazol-4-yl)amino]-4-[(1,2,3,4-tetrahydroisoquinolin-5-yl)amino]pyrimidine-5-carboxamide], for which the half-inhibitory concentration (IC50) stood at 1860 pM.

Regarding `COc1cc2c(cc1Nc1ncc(C(N)=O)c(Nc3cccc4c3OC(C)(C)C4)n1)CN(C)CC2` [Example 7-14, 4-[(2,2-dimethyl-2,3-dihydro-1-benzofuran-7-yl)amino]-2-[(6-methoxy-2-methyl-1,2,3,4-tetrahydroisoquinolin-7-yl)amino]pyrimidine-5-carboxamide], the midpoint of inhibition, the IC50, lay at 190 pM.

The compound `N#CC1(c2ccc(Nc3ncc(C(N)=O)c(Nc4cccc5c4CCNC5)n3)cc2)CC1` [Example 7-15, 2-{[4-(1-cyanocyclopropyl)phenyl]amino}-4-[(1,2,3,4-tetrahydroisoquinolin-5-yl)amino]pyrimidine-5-carboxamide] returned an IC50 of 130 pM.

`NC(=O)c1cnc(Nc2ccc3c(c2)COCC3)nc1Nc1cccc2c1CCNC2` [Example 7-16, 2-[(3,4-dihydro-1H-2-benzopyran-7-yl)amino]-4-[(1,2,3,4-tetrahydroisoquinolin-5-yl)amino]pyrimidine-5-carboxamide] returned an IC50 of 140 pM.

In the case of `COc1cc2c(cc1Nc1ncc(C(N)=O)c(Nc3cccc(F)c3)n1)CN(C)CC2` [Example 7-18, 4-[(3-fluorophenyl)amino]-2-[(6-methoxy-2-methyl-1,2,3,4-tetrahydroisoquinolin-7-yl)amino]pyrimidine-5-carboxamide], the half-maximal inhibitory concentration (IC50) came out at 290 pM. Against the preceding compound, the IC50 is about 2.1-fold higher.

Compound `COc1cc2c(cc1Nc1ncc(C(N)=O)c(Nc3ccc(F)cc3)n1)CN(C)CC2` [Example 7-21, 4-[(4-fluorophenyl)amino]-2-[(6-methoxy-2-methyl-1,2,3,4-tetrahydroisoquinolin-7-yl)amino]pyrimidine-5-carboxamide] displayed a half-maximal inhibitory concentration (IC50) of 510 pM.

Compound `COc1cc2c(cc1Nc1ncc(C(N)=O)c(Nc3cccc(C)c3)n1)CN(C)CC2` [Example 7-22, 2-[(6-methoxy-2-methyl-1,2,3,4-tetrahydroisoquinolin-7-yl)amino]-4-[(3-methylphenyl)amino]pyrimidine-5-carboxamide] displayed a half-inhibitory concentration (IC50) of 810 pM.

`CCC(C)c1ccccc1Nc1nc(Nc2cc3c(cc2OC)CCN(C)C3)ncc1C(N)=O` (stereo not shown) [Example 7-23, 4-{[2-(butan-2-yl)phenyl]amino}-2-[(6-methoxy-2-methyl-1,2,3,4-tetrahydroisoquinolin-7-yl)amino]pyrimidine-5-carboxamide] registered a half-maximal inhibitory concentration (IC50) of 170 pM.

`COc1cc2c(cc1Nc1ncc(C(N)=O)c(Nc3ccc(C)cc3)n1)CN(C)CC2` [Example 7-24, 2-[(6-methoxy-2-methyl-1,2,3,4-tetrahydroisoquinolin-7-yl)amino]-4-[(4-methylphenyl)amino]pyrimidine-5-carboxamide] displayed a half-maximal inhibitory concentration (IC50) of 400 pM.

The compound `COc1cc2c(cc1Nc1ncc(C(N)=O)c(Nc3cccc(Cl)c3)n1)CN(C)CC2` [Example 7-25, 4-[(3-chlorophenyl)amino]-2-[(6-methoxy-2-methyl-1,2,3,4-tetrahydroisoquinolin-7-yl)amino]pyrimidine-5-carboxamide] had an IC50 of 1040 pM.

The compound `COc1cc2c(cc1Nc1ncc(C(N)=O)c(Nc3ccc(F)c(C#N)c3)n1)CN(C)CC2` [Example 7-26, 4-[(3-cyano-4-fluorophenyl)amino]-2-[(6-methoxy-2-methyl-1,2,3,4-tetrahydroisoquinolin-7-yl)amino]pyrimidine-5-carboxamide] gave a half-maximal inhibitory concentration (IC50) of 15000 pM.

In turn, `COc1cc2c(cc1Nc1ncc(C(N)=O)c(Nc3cccc4c3CCNC4=O)n1)CN(C)CC2` [Example 7-27, 2-[(6-methoxy-2-methyl-1,2,3,4-tetrahydroisoquinolin-7-yl)amino]-4-[(1-oxo-1,2,3,4-tetrahydroisoquinolin-5-yl)amino]pyrimidine-5-carboxamide] displayed an IC50 of 130 pM.

Consider `COc1cc2c(cc1Nc1ncc(C(N)=O)c(Nc3cccc4c3CCN(CC(C)(C)O)C4)n1)CN(C)CC2` [Example 7-28, 4-{[2-(2-hydroxy-2-methylpropyl)-1,2,3,4-tetrahydroisoquinolin-5-yl]amino}-2-[(6-methoxy-2-methyl-1,2,3,4-tetrahydroisoquinolin-7-yl)amino]pyrimidine-5-carboxamide], for which half-maximal inhibition (IC50) was put at 510 pM.

Turning to `COc1cc2c(cc1Nc1ncc(C(N)=O)c(Nc3cccc4c3CCN(CC(F)(F)F)C4)n1)CN(C)CC2` [Example 7-29, 2-[(6-methoxy-2-methyl-1,2,3,4-tetrahydroisoquinolin-7-yl)amino]-4-{[2-(2,2,2-trifluoroethyl)-1,2,3,4-tetrahydroisoquinolin-5-yl]amino}pyrimidine-5-carboxamide], 350 pM corresponded to half-maximal inhibition (IC50).

In turn, `COc1cc2c(cc1Nc1ncc(C(N)=O)c(Nc3cccc(C#N)c3F)n1)CN(C)CC2` [Example 7-30, 4-[(3-cyano-2-fluorophenyl)amino]-2-[(6-methoxy-2-methyl-1,2,3,4-tetrahydroisoquinolin-7-yl)amino]pyrimidine-5-carboxamide] gave an IC50 of 2380 pM.

`COc1cc2c(cc1Nc1ncc(C(N)=O)c(Nc3cccc4c3CCN(S(C)(=O)=O)C4)n1)CN(C)CC2` [Example 7-31, 2-[(6-methoxy-2-methyl-1,2,3,4-tetrahydroisoquinolin-7-yl)amino]-4-{[2-(methylsulfonyl)-1,2,3,4-tetrahydroisoquinolin-5-yl]amino}pyrimidine-5-carboxamide] registered an IC50 of 150 pM.

Regarding `COc1cc2c(cc1Nc1ncc(C(N)=O)c(Nc3cccc(C4(C#N)CC4)c3)n1)CN(C)CC2` [Example 7-32, 4-{[3-(1-cyanocyclopropyl)phenyl]amino}-2-[(6-methoxy-2-methyl-1,2,3,4-tetrahydroisoquinolin-7-yl)amino]pyrimidine-5-carboxamide], the half-inhibitory concentration (IC50) came to 410 pM.

The compound `COc1cc2c(cc1Nc1ncc(C(N)=O)c(Nc3cccc(CN(C)CC(=O)O)c3)n1)CN(C)CC2` [Example 7-34, N-{[3-({5-carbamoyl-2-[(6-methoxy-2-methyl-1,2,3,4-tetrahydroisoquinolin-7-yl)amino]pyrimidin-4-yl}amino)phenyl]methyl}-N-methylglycine] showed an IC50 of 2430 pM.

On to `COc1cc2c(cc1Nc1ncc(C(N)=O)c(Nc3cccc4c3CCN(C)C4=O)n1)CN(C)CC2` [Example 7-35, 2-[(6-methoxy-2-methyl-1,2,3,4-tetrahydroisoquinolin-7-yl)amino]-4-[(2-methyl-1-oxo-1,2,3,4-tetrahydroisoquinolin-5-yl)amino]pyrimidine-5-carboxamide], for which the IC50 stood at 1490 pM.

`CN1CCc2cc(Cl)c(Nc3ncc(C(N)=O)c(Nc4cccc5c4CCNC5=O)n3)cc2C1` [Example 7-36, 2-[(6-chloro-2-methyl-1,2,3,4-tetrahydroisoquinolin-7-yl)amino]-4-[(1-oxo-1,2,3,4-tetrahydroisoquinolin-5-yl)amino]pyrimidine-5-carboxamide] came in with an IC50 of 370 pM. Compared with the last compound, the IC50 is about 4-fold lower.

Take `CN1CCc2cc(F)c(Nc3ncc(C(N)=O)c(Nc4cccc5c4CCNC5=O)n3)cc2C1` [Example 7-37, 2-[(6-fluoro-2-methyl-1,2,3,4-tetrahydroisoquinolin-7-yl)amino]-4-[(1-oxo-1,2,3,4-tetrahydroisoquinolin-5-yl)amino]pyrimidine-5-carboxamide]: the 50% inhibitory concentration (IC50) worked out at 210 pM.

As to `CNC(=O)c1cccc(Nc2nc(Nc3cc4c(cc3OC)CCN(C)C4)ncc2C(N)=O)c1` [Example 7-38, 2-[(6-methoxy-2-methyl-1,2,3-tetrahydroisoquinolin-7-yl)amino]-4-{[3-(methylcarbamoyl)phenyl]amino} pyrimidine-5-carboxamide], the 50% inhibitory concentration (IC50) was 7770 pM.

Regarding `CNC(=O)c1cccc(Nc2nc(Nc3cc4c(cc3Cl)CCN(C)C4)ncc2C(N)=O)c1` [Example 7-39, 2-[(6-chloro-2-methyl-1,2,3,4-tetrahydroisoquinolin-7-yl)amino]-4-{[3-(methylcarbamoyl)phenyl]amino} pyrimidine-5-carboxamide], the concentration for half-maximal inhibition (IC50) is 57400 pM.
